Experimental data reported in the kinase profiling compilation of Christmann-Franck et al. (2016).

Legend:
Experiment in all cases: KINOMEscan competition binding
Details in all cases: compound 10.0 µM
AKT2 (human) = AKT2 (human) (UniProt P31751)
CDC42BPB (human) = CDC42BPB (human) (UniProt Q9Y5S2)
CDK3 (human) = CDK3 (human) (UniProt Q00526)
CDK5 (human) = CDK5 (human) (UniProt Q00535)
CLK3 (human) = CLK3 (human) (UniProt P49761)
CSNK1G2 (human) = CSNK1G2 (human) (UniProt P78368)
EPHA4 (human) = EPHA4 (human) (UniProt P54764)
EPHA6 (human) = EPHA6 (human) (UniProt Q9UF33)
ERBB4 (human) = ERBB4 (human) (UniProt Q15303)
FGFR2 (human) = FGFR2 (human) (UniProt P21802)
GRK1 (human) = GRK1 (human) (UniProt Q15835)
GRK7 (human) = GRK7 (human) (UniProt Q8WTQ7)
ITK (human) = ITK (human) (UniProt Q08881)
LATS2 (human) = LATS2 (human) (UniProt Q9NRM7)
LTK (human) = LTK (human) (UniProt P29376)
MARK3 (human) = MARK3 (human) (UniProt P27448)
MARK4 (human) = MARK4 (human) (UniProt Q96L34)
MERTK (human) = MERTK (human) (UniProt Q12866)
MLTK (human) = MLTK (human) (UniProt Q9NYL2)
PIK3C2G (human) = PIK3C2G (human) (UniProt O75747)
PIK3CB (human) = PIK3CB (human) (UniProt P42338)
PIK3CD (human) = PIK3CD (human) (UniProt O00329)
PIP4K2B (human) = PIP4K2B (human) (UniProt P78356)
PKN1 (human) = PKN1 (human) (UniProt Q16512)
PLK3 (human) = PLK3 (human) (UniProt Q9H4B4)
PRKCI (human) = PRKCI (human) (UniProt P41743)
PRKD2 (human) = PRKD2 (human) (UniProt Q9BZL6)
PTK2B (human) = PTK2B (human) (UniProt Q14289)
ROS1 (human) = ROS1 (human) (UniProt P08922)
RPS6KA6 KD1 (human) = RPS6KA6 KD1 (human) (UniProt Q9UK32)
RPS6KB1 (human) = RPS6KB1 (human) (UniProt P23443)
STK25 (human) = STK25 (human) (UniProt O00506)
STK32A (human) = STK32A (human) (UniProt Q8WU08)
STK33 (human) = STK33 (human) (UniProt Q9BYT3)
STK36 (human) = STK36 (human) (UniProt Q9NRP7)
STK38L (human) = STK38L (human) (UniProt Q9Y2H1)
SYK (human) = SYK (human) (UniProt P43405)
TBK1 (human) = TBK1 (human) (UniProt Q9UHD2)
TLK2 (human) = TLK2 (human) (UniProt Q86UE8)
ULK2 (human) = ULK2 (human) (UniProt Q8IYT8)

ERBB4 (human), sequence (Q15303 whole entry, looked up): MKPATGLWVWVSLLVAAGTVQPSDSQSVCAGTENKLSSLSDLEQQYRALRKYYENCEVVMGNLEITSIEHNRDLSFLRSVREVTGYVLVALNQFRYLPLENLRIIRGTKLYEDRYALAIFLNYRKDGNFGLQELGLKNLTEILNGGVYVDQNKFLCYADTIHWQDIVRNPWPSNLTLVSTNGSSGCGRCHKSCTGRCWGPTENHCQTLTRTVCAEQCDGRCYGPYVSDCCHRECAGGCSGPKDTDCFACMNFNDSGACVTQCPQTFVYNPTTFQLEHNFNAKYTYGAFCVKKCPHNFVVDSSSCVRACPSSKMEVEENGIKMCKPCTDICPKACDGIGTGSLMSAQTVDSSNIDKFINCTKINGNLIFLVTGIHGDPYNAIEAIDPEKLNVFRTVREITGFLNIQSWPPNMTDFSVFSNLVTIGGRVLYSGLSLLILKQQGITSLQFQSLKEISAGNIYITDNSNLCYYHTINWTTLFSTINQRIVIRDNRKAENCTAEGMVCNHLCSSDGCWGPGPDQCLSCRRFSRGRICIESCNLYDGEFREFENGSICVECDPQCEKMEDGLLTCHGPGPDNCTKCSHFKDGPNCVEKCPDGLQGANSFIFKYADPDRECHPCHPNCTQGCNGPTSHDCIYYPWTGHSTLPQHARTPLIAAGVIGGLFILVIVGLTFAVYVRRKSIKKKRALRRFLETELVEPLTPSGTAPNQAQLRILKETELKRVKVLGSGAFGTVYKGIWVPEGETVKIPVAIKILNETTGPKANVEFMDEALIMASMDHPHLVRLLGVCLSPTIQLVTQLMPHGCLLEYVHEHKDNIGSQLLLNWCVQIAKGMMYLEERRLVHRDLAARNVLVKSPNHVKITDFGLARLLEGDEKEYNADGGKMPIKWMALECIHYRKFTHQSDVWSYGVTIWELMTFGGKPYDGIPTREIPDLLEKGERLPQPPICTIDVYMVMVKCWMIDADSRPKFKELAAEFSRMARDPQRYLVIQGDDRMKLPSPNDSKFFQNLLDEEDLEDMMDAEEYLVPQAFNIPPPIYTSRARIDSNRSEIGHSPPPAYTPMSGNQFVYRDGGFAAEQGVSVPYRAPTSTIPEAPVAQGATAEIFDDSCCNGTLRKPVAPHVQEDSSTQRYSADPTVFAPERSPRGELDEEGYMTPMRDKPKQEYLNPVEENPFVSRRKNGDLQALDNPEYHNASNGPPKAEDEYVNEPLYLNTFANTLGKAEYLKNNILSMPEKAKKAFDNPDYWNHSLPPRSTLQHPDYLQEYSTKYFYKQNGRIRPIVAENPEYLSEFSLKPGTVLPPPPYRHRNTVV
PTK2B (human), sequence (Q14289 whole entry, looked up): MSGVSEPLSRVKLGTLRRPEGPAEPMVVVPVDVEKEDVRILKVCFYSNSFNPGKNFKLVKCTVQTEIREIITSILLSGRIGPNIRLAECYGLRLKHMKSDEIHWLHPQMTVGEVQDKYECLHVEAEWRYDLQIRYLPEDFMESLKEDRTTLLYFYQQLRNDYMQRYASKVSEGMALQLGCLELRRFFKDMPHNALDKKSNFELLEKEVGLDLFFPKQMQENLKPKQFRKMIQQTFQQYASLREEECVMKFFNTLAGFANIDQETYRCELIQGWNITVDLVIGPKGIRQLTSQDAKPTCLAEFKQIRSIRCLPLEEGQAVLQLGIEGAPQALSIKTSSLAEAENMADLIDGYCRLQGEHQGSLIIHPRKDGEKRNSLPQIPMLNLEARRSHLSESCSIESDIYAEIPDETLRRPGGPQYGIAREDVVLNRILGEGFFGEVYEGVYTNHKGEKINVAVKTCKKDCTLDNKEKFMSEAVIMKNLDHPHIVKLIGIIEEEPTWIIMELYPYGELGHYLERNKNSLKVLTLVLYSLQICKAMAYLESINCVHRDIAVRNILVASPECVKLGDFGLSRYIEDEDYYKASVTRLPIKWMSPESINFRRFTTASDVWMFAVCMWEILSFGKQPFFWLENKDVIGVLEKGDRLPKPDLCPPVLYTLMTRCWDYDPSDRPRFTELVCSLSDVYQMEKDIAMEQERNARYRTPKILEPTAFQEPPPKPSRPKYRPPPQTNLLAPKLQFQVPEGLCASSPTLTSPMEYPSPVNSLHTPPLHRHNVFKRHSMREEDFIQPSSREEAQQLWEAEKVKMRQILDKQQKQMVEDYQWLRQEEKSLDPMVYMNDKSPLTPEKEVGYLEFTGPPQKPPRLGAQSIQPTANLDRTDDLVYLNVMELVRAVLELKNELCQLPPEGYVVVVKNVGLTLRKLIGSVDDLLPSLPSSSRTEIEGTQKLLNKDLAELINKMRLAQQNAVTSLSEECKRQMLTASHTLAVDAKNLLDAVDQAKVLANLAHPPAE
PIP4K2B (human), sequence (P78356 whole entry, looked up): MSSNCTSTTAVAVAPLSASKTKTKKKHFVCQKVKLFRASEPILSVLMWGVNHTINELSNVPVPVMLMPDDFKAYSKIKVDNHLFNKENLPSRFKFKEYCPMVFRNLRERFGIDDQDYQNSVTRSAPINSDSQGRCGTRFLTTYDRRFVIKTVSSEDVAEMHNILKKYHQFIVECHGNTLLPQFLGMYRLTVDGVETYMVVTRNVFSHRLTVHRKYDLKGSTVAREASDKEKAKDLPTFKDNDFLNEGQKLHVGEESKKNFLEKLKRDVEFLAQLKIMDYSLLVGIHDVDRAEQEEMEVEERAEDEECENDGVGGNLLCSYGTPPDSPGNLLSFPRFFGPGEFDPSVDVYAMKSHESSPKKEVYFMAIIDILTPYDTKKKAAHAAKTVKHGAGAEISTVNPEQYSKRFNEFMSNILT
PLK3 (human), sequence (Q9H4B4 whole entry, looked up): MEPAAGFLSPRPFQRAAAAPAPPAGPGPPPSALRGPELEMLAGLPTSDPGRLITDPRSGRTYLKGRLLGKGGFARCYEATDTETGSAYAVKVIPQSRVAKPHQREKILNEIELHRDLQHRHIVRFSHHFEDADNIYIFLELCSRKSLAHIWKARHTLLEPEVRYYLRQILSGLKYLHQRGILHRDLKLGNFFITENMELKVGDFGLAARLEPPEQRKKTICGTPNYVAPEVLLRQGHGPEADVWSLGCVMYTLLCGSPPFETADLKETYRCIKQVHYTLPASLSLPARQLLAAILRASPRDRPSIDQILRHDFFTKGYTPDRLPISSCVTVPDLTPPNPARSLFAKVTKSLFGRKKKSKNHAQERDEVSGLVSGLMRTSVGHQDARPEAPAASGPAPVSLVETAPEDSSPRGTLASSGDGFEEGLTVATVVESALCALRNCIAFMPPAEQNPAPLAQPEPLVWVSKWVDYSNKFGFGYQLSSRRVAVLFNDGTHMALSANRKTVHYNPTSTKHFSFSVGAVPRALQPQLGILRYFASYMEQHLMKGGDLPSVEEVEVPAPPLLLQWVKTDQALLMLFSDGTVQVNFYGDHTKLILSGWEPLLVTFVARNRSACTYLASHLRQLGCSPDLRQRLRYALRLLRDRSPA
RPS6KB1 (human), sequence (P23443 whole entry, looked up): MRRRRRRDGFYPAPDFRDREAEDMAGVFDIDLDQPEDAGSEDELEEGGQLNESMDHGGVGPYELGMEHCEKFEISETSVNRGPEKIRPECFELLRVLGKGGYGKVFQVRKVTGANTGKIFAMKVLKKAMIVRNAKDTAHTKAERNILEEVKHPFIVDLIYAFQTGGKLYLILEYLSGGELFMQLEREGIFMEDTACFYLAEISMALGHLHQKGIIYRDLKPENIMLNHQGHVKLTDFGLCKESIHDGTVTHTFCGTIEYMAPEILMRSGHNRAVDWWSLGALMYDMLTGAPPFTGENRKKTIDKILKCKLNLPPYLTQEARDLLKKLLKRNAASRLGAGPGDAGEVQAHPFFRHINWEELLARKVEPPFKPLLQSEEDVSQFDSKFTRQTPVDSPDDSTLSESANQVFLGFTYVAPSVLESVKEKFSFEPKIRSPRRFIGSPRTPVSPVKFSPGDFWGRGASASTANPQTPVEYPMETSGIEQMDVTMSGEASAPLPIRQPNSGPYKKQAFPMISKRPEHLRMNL
PRKD2 (human), sequence (Q9BZL6 whole entry, looked up): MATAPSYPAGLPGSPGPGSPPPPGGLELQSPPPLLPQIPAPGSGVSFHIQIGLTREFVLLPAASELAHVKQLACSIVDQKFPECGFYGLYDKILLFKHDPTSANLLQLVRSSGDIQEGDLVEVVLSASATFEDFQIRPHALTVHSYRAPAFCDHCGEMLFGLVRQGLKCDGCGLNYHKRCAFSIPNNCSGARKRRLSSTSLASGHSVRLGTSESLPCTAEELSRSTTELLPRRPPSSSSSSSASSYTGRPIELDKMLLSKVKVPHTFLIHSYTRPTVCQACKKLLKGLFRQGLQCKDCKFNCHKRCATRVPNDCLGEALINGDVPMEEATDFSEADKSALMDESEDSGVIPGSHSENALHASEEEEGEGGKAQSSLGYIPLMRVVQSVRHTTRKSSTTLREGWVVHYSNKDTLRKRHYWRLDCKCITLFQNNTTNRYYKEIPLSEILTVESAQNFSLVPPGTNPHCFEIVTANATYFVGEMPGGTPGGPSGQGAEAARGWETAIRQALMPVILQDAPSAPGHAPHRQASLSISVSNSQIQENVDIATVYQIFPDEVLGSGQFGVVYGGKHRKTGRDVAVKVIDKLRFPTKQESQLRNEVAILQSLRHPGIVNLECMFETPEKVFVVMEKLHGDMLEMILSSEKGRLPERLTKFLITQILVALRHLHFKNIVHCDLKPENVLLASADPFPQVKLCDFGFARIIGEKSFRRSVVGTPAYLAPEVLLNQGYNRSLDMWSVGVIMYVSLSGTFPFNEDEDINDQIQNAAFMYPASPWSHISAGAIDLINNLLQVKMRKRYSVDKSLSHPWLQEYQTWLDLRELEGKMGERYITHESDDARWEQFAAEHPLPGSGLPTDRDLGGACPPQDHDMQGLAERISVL
CDK5 (human), sequence (Q00535 whole entry, looked up): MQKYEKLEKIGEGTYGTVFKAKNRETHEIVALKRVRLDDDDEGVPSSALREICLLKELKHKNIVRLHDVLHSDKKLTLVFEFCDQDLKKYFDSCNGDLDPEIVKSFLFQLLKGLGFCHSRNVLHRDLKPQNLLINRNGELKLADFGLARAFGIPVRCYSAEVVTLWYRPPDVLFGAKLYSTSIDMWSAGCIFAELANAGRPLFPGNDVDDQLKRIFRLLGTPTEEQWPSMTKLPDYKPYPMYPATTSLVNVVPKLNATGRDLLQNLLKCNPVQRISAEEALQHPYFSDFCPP

Row | Compound | kinase still bound, per cent of control (AKT2 (human)) [%] | kinase still bound, per cent of control (CDC42BPB (human)) [%] | kinase still bound, per cent of control (CDK3 (human)) [%] | kinase still bound, per cent of control (CDK5 (human)) [%] | kinase still bound, per cent of control (CLK3 (human)) [%] | kinase still bound, per cent of control (CSNK1G2 (human)) [%] | kinase still bound, per cent of control (EPHA4 (human)) [%] | kinase still bound, per cent of control (EPHA6 (human)) [%] | kinase still bound, per cent of control (ERBB4 (human)) [%] | kinase still bound, per cent of control (FGFR2 (human)) [%] | kinase still bound, per cent of control (GRK1 (human)) [%] | kinase still bound, per cent of control (GRK7 (human)) [%] | kinase still bound, per cent of control (ITK (human)) [%] | kinase still bound, per cent of control (LATS2 (human)) [%] | kinase still bound, per cent of control (LTK (human)) [%] | kinase still bound, per cent of control (MARK3 (human)) [%] | kinase still bound, per cent of control (MARK4 (human)) [%] | kinase still bound, per cent of control (MERTK (human)) [%] | kinase still bound, per cent of control (MLTK (human)) [%] | kinase still bound, per cent of control (PIK3C2G (human)) [%] | further results
1 | COc1cc(C(=O)N2CCC(N3CCN(C)CC3)CC2)ccc1Nc1ncc2c(n1)N(C)c1ccccc1C(=O)N2C | 100 | 100 | 100 | 81 | 95 | 100 | 89 | 89 | 100 | 95 | 91 | 100 | 82 | 95 | 32 | 98 | 78 | 100 | 99 | 100 | kinase still bound, per cent of control (PIK3CB (human)): 96%; kinase still bound, per cent of control (PIK3CD (human)): 62%; kinase still bound, per cent of control (PIP4K2B (human)): 100%; kinase still bound, per cent of control (PKN1 (human)): 100%; kinase still bound, per cent of control (PLK3 (human)): 51%; kinase still bound, per cent of control (PRKCI (human)): 100%; kinase still bound, per cent of control (PRKD2 (human)): 59%; kinase still bound, per cent of control (PTK2B (human)): 78%; kinase still bound, per cent of control (ROS1 (human)): 12%; kinase still bound, per cent of control (RPS6KA6 KD1 (human)): 92%; kinase still bound, per cent of control (RPS6KB1 (human)): 100%; kinase still bound, per cent of control (STK25 (human)): 68%; kinase still bound, per cent of control (STK32A (human)): 100%; kinase still bound, per cent of control (STK33 (human)): 10%; kinase still bound, per cent of control (STK36 (human)): 97%; kinase still bound, per cent of control (STK38L (human)): 100%; kinase still bound, per cent of control (SYK (human)): 100%; kinase still bound, per cent of control (TBK1 (human)): 97%; kinase still bound, per cent of control (TLK2 (human)): 99%; kinase still bound, per cent of control (ULK2 (human)): 67%
2 | CN(C)C/C=C/C(=O)Nc1ccc(C(=O)Nc2cccc(Nc3nccc(-c4cccnc4)n3)c2)cc1 | 100 | 100 | 96 | 100 | 100 | 100 | 100 | 90 | 100 | 86 | 98 | 98 | 100 | 86 | 100 | 100 | 26 | 100 | 62 | 100 | kinase still bound, per cent of control (PIK3CB (human)): 100%; kinase still bound, per cent of control (PIK3CD (human)): 91%; kinase still bound, per cent of control (PIP4K2B (human)): 56%; kinase still bound, per cent of control (PKN1 (human)): 95%; kinase still bound, per cent of control (PLK3 (human)): 35%; kinase still bound, per cent of control (PRKCI (human)): 100%; kinase still bound, per cent of control (PRKD2 (human)): 100%; kinase still bound, per cent of control (PTK2B (human)): 100%; kinase still bound, per cent of control (ROS1 (human)): 76%; kinase still bound, per cent of control (RPS6KA6 KD1 (human)): 51%; kinase still bound, per cent of control (RPS6KB1 (human)): 100%; kinase still bound, per cent of control (STK25 (human)): 83%; kinase still bound, per cent of control (STK32A (human)): 95%; kinase still bound, per cent of control (STK33 (human)): 100%; kinase still bound, per cent of control (STK36 (human)): 99%; kinase still bound, per cent of control (STK38L (human)): 100%; kinase still bound, per cent of control (SYK (human)): 23%; kinase still bound, per cent of control (TBK1 (human)): 38%; kinase still bound, per cent of control (TLK2 (human)): 100%; kinase still bound, per cent of control (ULK2 (human)): 99%
3 | COc1ccc(N(C(=O)Oc2c(C)cccc2C)c2ccnc(Nc3ccc(N4CCN(C)CC4)cc3)n2)c(OC)c1 | 100 | 2.9 | 100 | 98 | 88 | 33 | 0 | 0 | 0.75 | 0.45 | 100 | 72 | 100 | 70 | 1.2 | 4.8 | 49 | 20 | 24 | 98 | kinase still bound, per cent of control (PIK3CB (human)): 100%; kinase still bound, per cent of control (PIK3CD (human)): 92%; kinase still bound, per cent of control (PIP4K2B (human)): 5.4%; kinase still bound, per cent of control (PKN1 (human)): 15%; kinase still bound, per cent of control (PLK3 (human)): 100%; kinase still bound, per cent of control (PRKCI (human)): 62%; kinase still bound, per cent of control (PRKD2 (human)): 6.4%; kinase still bound, per cent of control (PTK2B (human)): 9%; kinase still bound, per cent of control (ROS1 (human)): 0.8%; kinase still bound, per cent of control (RPS6KA6 KD1 (human)): 40%; kinase still bound, per cent of control (RPS6KB1 (human)): 72%; kinase still bound, per cent of control (STK25 (human)): 61%; kinase still bound, per cent of control (STK32A (human)): 8.2%; kinase still bound, per cent of control (STK33 (human)): 28%; kinase still bound, per cent of control (STK36 (human)): 0.95%; kinase still bound, per cent of control (STK38L (human)): 100%; kinase still bound, per cent of control (SYK (human)): 1.4%; kinase still bound, per cent of control (TBK1 (human)): 74%; kinase still bound, per cent of control (TLK2 (human)): 76%; kinase still bound, per cent of control (ULK2 (human)): 38%
